# Measured values: patent US8580824B2, “Pyridin-4-yl derivatives as immunomodulating agents” (Actelion Pharmaceuticals Ltd., priority 2006, dated 2013)
# Target: recombinant human S1P1 receptor (Homo sapiens, UniProt P21453)
# Assay: GTPγS assay to determine EC50 values
# Type: biochemical
# Conditions: agonistic activity; membrane preparations of CHO cells expressing recombinant human S1P1 receptor; 35S-GTPγS binding
# Description: i) GTPγS assay to determine EC50 values
# GTPγS binding assays are performed in 96 well microtiter plates (Nunc, 442587) in a final volume of 200 μl, using membrane preparations of CHO cells expressing recombinant human S1P1 receptor. Assay conditions are 20 mM Hepes (Fluka, 54461), 100 mM NaCl (Fluka, 71378), 5 mM MgCl2 (Fluka, 63064), 0.1% BSA (Calbiochem, 126609), 1 μM GDP (Sigma, G-7127), 2.5% DMSO (Fluka, 41644), 50 pM ^35S-GTPγS (Amersham Biosciences, SJ1320). The pH is 7.4. Test compounds are dissolved and diluted in 100% DMSO and pre-incubated at room temperature for 30 min in 150 μl of the above assay buffer, in the absence of ^35S-GTPγS. After addition of 50 μl of ^35S-GTPγS, the assay is incubated for 1 h at rt. The assay is terminated by transfer of the reaction mixture to a Multiscreen plate (Millipore, MAHFC1H60) using a cell harvester from Packard Biosciences, and the plates are washed with ice-cold 10 mM Na2HPO4/NaH2PO4 (70%/30%), dried, sealed at the bottom and, after addition of 25 μl MicroScint20 (Packard Biosciences, order#6013621), sealed on the top. Membrane-bound ^35S-GTPγS is measured with a TopCount from Packard Biosciences.
# EC50 is the concentration of agonist inducing 50% of the maximal specific ^35S-GTPγS binding. Specific binding is determined by subtracting non-specific binding from maximal binding. Maximal binding is the amount of cpm bound to the Multiscreen plate in the presence of 10 μM of S1P. Non-specific binding is the amount of binding in the absence of an agonist in the assay.
# recombinant human S1P1 receptor, sequence (P21453 whole entry): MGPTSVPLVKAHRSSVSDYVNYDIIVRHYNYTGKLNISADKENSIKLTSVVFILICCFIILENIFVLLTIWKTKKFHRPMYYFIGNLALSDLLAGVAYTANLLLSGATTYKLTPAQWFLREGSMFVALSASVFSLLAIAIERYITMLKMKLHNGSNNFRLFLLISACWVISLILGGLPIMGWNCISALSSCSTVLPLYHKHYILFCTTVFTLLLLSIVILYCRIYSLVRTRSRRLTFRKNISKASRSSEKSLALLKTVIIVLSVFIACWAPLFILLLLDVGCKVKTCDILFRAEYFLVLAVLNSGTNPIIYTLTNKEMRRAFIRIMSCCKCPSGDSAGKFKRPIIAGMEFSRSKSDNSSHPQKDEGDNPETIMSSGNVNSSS
row,EC50 [nM],SMILES
1,0.7,"Cc1cc(-c2noc(-c3cc(Cl)nc(CC(C)C)c3)n2)cc(C)c1OCC(O)CO (racemic) [Example 4, (RS)-3-{4-[5-(2-Chloro-6-isobutyl-pyridin-4-yl)-[1,2,4]oxadiazol-3-yl]-2,6-dimethyl-phenoxy}-propane-1,2-diol]"
2,0.4,"Cc1cc(-c2noc(-c3cc(Cl)nc(OC(C)C)c3)n2)cc(C)c1OCC(O)CNC(=O)CO (racemic) [Example 26, N-((RS)-3-{4-[5-(2-Chloro-6-isopropoxy-pyridin-4-yl)-[1,2,4]oxadiazol-3-yl]-2,6-dimethyl-phenoxy}-2-hydroxy-propyl)-2-hydroxy-acetamide]"
3,0.6,CCc1cc(-c2noc(-c3cc(C)nc(C(CC)CC)c3)n2)cc(C)c1OC[C@@H](O)CO [Example 196]
4,5.8,"CCc1cc(-c2ncc(-c3cc(C)nc(CC(C)C)c3)o2)cc(C)c1OC[C@@H](O)CO [Example 235, (S)-3-{2-Ethyl-4-[5-(2-isobutyl-6-methyl-pyridin-4-yl)-oxazol-2-yl]-6-methyl-phenoxy}-propane-1,2-diol]"
5,5.6,CCCc1cc(-c2nc(-c3cc(C)c(O)c(CC)c3)no2)cc(C)n1 [Example 86]
6,0.2,"Cc1cc(-c2nc(-c3cc(C)c(OCC(O)CNC(=O)CO)c(C)c3)no2)cc(CC(C)C)n1 (racemic) [Example 11, 2-Hydroxy-N-((RS)-2-hydroxy-3-{4-[5-(2-isobutyl-6-methyl-pyridin-4-yl)-[1,2,4]oxadiazol-3-yl]-2,6-dimethyl-phenoxy}-propyl)-acetamide]"
7,0.5,CCc1cc(-c2nc(-c3cc(C)c(OC[C@H](O)CNC(=O)CO)c(Cl)c3)no2)cc(C)n1 [Example 60]
8,0.8,CCc1cc(-c2nnc(-c3cc(C)nc(CC(C)C)c3)o2)cc(C)c1OC[C@@H](O)CNC(=O)CO [Example 180]
9,0.9,CCc1cc(-c2noc(-c3cc(CC(C)C)nc(OC)c3)n2)cc(C)c1OC[C@@H](O)CNC(=O)CO [Example 226]
10,4.3,CCc1cc(-c2noc(-c3cc(C)c(OC[C@@H](O)CNC(=O)CO)c(CC)c3)n2)cc(C)n1 [Example 74]
11,0.4,CCCc1cc(-c2noc(-c3cc(C)nc(C(C)C)c3)n2)cc(C)c1OC[C@@H](O)CNC(=O)CO [Example 123]
12,2.5,"CCOc1cc(-c2nc(-c3cc(C)c(OCC(O)CO)c(C)c3)no2)cc(C)n1 (racemic) [Example 27, (RS)-3-{4-[5-(2-Ethoxy-6-methyl-pyridin-4-yl)-[1,2,4]oxadiazol-3-yl]-2,6-dimethyl-phenoxy}-propane-1,2-diol]"
13,0.7,COc1cc(-c2noc(-c3cc(C)nc(CC(C)C)c3)n2)cc(Cl)c1OC[C@H](O)CNC(=O)CO [Example 160]
14,0.2,Cc1cc(-c2nc(-c3cc(C)c(OCC(O)CNC(=O)CO)c(Cl)c3)no2)cc(CC(C)C)n1 (centres unmarked) [Example 145]
15,1.8,CCCc1cc(-c2nnc(-c3cc(C)c(OC[C@@H](O)CNC(=O)CO)c(C)c3)o2)cc(C)n1 [Example 111]
16,0.4,CCCc1cc(-c2nc(-c3cc(C)c(OCC(O)CNC(=O)CO)c(C)c3)no2)cc(C)n1 (centres unmarked) [Example 95]

# System: circulating lymphocytes in normotensive male Wistar rats
# Assay: Assessment of in vivo efficacy: circulating lymphocytes after oral administration
# Set-up: species or system rat
# Conditions: 6 h after oral administration of 10 mg/kg to normotensive male Wistar rats, compared to vehicle-treated group
# Description: The efficacy of the compounds of Formula (I) is assessed by measuring the circulating lymphocytes after oral administration of 3 to 30 mg/kg of a compound of Formula (I) to normotensive male Wistar rats. The animals are housed in climate-controlled conditions with a 12 h-light/dark cycle, and have free access to normal rat chow and drinking water. Blood is collected before and 3, 6 and 24 h after drug administration. Full blood is subjected to hematology using Advia Hematology system (Bayer Diagnostics, Zurich, Switzerland).
# All data are presented as mean±SEM. Statistical analyses are performed by analysis of variance (ANOVA) using Statistica (StatSoft) and the Student-Newman-Keuls procedure for multiple comparisons. The null hypothesis is rejected when p<0.05.
# Lymphocyte counts 6 h after oral administration have been measured for 51 from 244 exemplified compounds (one being dosed at 3 mg/kg) and are in the range of −78% to −53% with an average of −67%.
row,SMILES,Lymphocyte counts [%]
1,"COc1cc(-c2noc(-c3cc(C)nc(CC(C)C)c3)n2)cc(C)c1OCC(O)CNC(=O)CO (racemic) [Example 159, (RS)-2-Hydroxy-N-(2-hydroxy-3-{4-[5-(2-isobutyl-6-methyl-pyridin-4-yl)-[1,2,4]oxadiazol-3-yl]-2-methoxy-6-methyl-phenoxy}-propyl)-acetamide]",−74
2,"Cc1cc(-c2nc(-c3cc(C)c(OCC(O)CNC(=O)CO)c(C)c3)no2)cc(OC(C)C)n1 (racemic) [Example 30, 2-Hydroxy-N-((RS)-2-hydroxy-3-{4-[5-(2-isopropoxy-6-methyl-pyridin-4-yl)-[1,2,4]oxadiazol-3-yl]-2,6-dimethyl-phenoxy}-propyl)-acetamide]",−73
3,"CCc1cc(-c2nc(-c3cc(C)c(OCC(O)CO)c(C)c3)no2)cc(C)n1 (racemic) [Example 8, (RS)-3-{4-[5-(2-Ethyl-6-methyl-pyridin-4-yl)-[1,2,4]oxadiazol-3-yl]-2,6-dimethyl-phenoxy}-propane-1,2-diol]",−62
4,"Cc1cc(-c2nc(-c3cc(C)c(OCC(O)CO)c(C)c3)no2)cc(CC(C)C)n1 (racemic) [Example 9, (RS)-3-{4-[5-(2-Isobutyl-6-methyl-pyridin-4-yl)-[1,2,4]oxadiazol-3-yl]-2,6-dimethyl-phenoxy}-propane-1,2-diol]",−67
